The data set deals with rodent lifetime carcinogenesis bioassay, tumor incidence TD50. Nature of the data set: carcinogenic potency in animals, long-term in vivo studies, CPDB compilation (AID 1745844).
Where [1] appears, read: mouse, strain B6AKF1, females, oral dosing, site: any site (literature study), lesion: several types, types named in the paper, dosed 76 weeks, study length 76 weeks.
[2] abbreviates: mouse, strain B6AKF1, females, oral dosing, site: liver, lesion: hepatoma, dosed 76 weeks, study length 76 weeks.
Setting [3] is: mouse, strain B6AKF1, females, oral dosing, site: lung, lesion: adenoma, dosed 76 weeks, study length 76 weeks.
[4] abbreviates: mouse, strain B6AKF1, males, oral dosing, site: any site (literature study), lesion: several types, types named in the paper, dosed 76 weeks, study length 76 weeks.
The mark [5] stands for this setting: mouse, strain B6AKF1, males, oral dosing, site: liver, lesion: hepatoma, dosed 76 weeks, study length 76 weeks.
[6] abbreviates: mouse, strain B6AKF1, males, oral dosing, site: lung, lesion: adenoma, dosed 76 weeks, study length 76 weeks.
The mark [7] stands for this setting: mouse, strain B6C3F1, females, oral dosing, site: liver, lesion: hepatoma, dosed 76 weeks, study length 76 weeks.
[8] abbreviates: mouse, strain B6C3F1, females, oral dosing, site: lung, lesion: several types, types named in the paper, dosed 76 weeks, study length 76 weeks.
The mark [9] stands for this setting: mouse, strain B6C3F1, males, oral dosing, site: any site (literature study), lesion: several types, types named in the paper, dosed 76 weeks, study length 76 weeks.
[10] abbreviates: mouse, strain B6C3F1, males, oral dosing, site: liver, lesion: hepatoma, dosed 76 weeks, study length 76 weeks.
Where [11] appears, read: mouse, strain B6C3F1, males, oral dosing, site: lung, lesion: adenoma, dosed 76 weeks, study length 76 weeks.

Active and inactive are the calls of the source. How the calls were made is not given here.

As to `O=C1c2ccccc2C(=O)N1SC(Cl)(Cl)Cl`, the carcinogen call runs as follows: under setting [1], “negative (inactive)”; under setting [2], “negative (inactive)”; under setting [3], “negative (inactive)”; under setting [4], “negative (inactive)”; under setting [6], “negative (inactive)”; under setting [7], “negative (inactive)”. For the same molecule, the carcinogen call under setting [8] is “negative (inactive)”. The TD50 is, setting by setting: under setting [5], 8230 mg/kg/day (inactive); (mouse, strain B6C3F1, females, in feed, site: all sites, lesion: malignant lymphoma, dosed 104 weeks, study length 104 weeks) 2200 mg/kg/day; (mouse, strain B6C3F1, females, in feed, site: duodenum, lesion: adenocarcinoma, dosed 104 weeks, study length 104 weeks) 2090 mg/kg/day; (mouse, strain B6C3F1, females, in feed, site: duodenum, lesion: adenoma, dosed 104 weeks, study length 104 weeks) 29200 mg/kg/day; (mouse, strain B6C3F1, females, in feed, site: duodenum, lesion: several types, types named in the paper, dosed 104 weeks, study length 104 weeks) 1670 mg/kg/day; (mouse, strain B6C3F1, females, in feed, site: liver, lesion: several types, types named in the paper, dosed 104 weeks, study length 104 weeks) 18900 mg/kg/day. Moreover, the TD50 (mouse, strain B6C3F1, females, in feed, site: stomach, nonglandular, lesion: several types, types named in the paper, dosed 104 weeks, study length 104 weeks) was 6000 mg/kg/day; the TD50 (mouse, strain B6C3F1, females, in feed, site: stomach, nonglandular, lesion: squamous-cell papilloma, dosed 104 weeks, study length 104 weeks) stood at 5780 mg/kg/day; the TD50 (mouse, strain B6C3F1, females, oral dosing, site: any site (literature study), lesion: several types, types named in the paper, dosed 76 weeks, study length 76 weeks) is 260 mg/kg/day (inactive); the TD50 (mouse, strain B6C3F1, males, in feed, site: duodenum, lesion: adenocarcinoma, dosed 104 weeks, study length 104 weeks) is 981 mg/kg/day; the TD50 (mouse, strain B6C3F1, males, in feed, site: duodenum, lesion: adenoma, dosed 104 weeks, study length 104 weeks) worked out at 23000 mg/kg/day; the TD50 (mouse, strain B6C3F1, males, in feed, site: duodenum, lesion: several types, types named in the paper, dosed 104 weeks, study length 104 weeks) was 899 mg/kg/day. In addition, the TD50 reads like this: (mouse, strain B6C3F1, males, in feed, site: stomach, nonglandular, lesion: several types, types named in the paper, dosed 104 weeks, study length 104 weeks) 5460 mg/kg/day; (mouse, strain B6C3F1, males, in feed, site: stomach, nonglandular, lesion: squamous-cell carcinoma, dosed 104 weeks, study length 104 weeks) 13100 mg/kg/day; (mouse, strain B6C3F1, males, in feed, site: stomach, nonglandular, lesion: squamous-cell papilloma, dosed 104 weeks, study length 104 weeks) 12900 mg/kg/day; under setting [9], 87.7 mg/kg/day (inactive); under setting [10], 242 mg/kg/day (inactive); under setting [11], 156 mg/kg/day (inactive). The TD50 is 2380 mg/kg/day (mouse, strain Charles River CD1, females, in feed, site: digestive tract, lesion: several types, types named in the paper, dosed 112 weeks, study length 112 weeks); 3310 mg/kg/day (mouse, strain Charles River CD1, females, in feed, site: duodenum, lesion: adenocarcinoma, dosed 112 weeks, study length 112 weeks); 7280 mg/kg/day (mouse, strain Charles River CD1, females, in feed, site: duodenum, lesion: adenoma, dosed 112 weeks, study length 112 weeks); 2190 mg/kg/day (mouse, strain Charles River CD1, males, in feed, site: digestive tract, lesion: several types, types named in the paper, dosed 112 weeks, study length 112 weeks); 2400 mg/kg/day (mouse, strain Charles River CD1, males, in feed, site: duodenum, lesion: adenocarcinoma, dosed 112 weeks, study length 112 weeks); 10300 mg/kg/day (mouse, strain Charles River CD1, males, in feed, site: duodenum, lesion: adenoma, dosed 112 weeks, study length 112 weeks). In addition, the TD50 is 13400 mg/kg/day (mouse, strain Charles River CD1, males, in feed, site: stomach, nonglandular, lesion: papilloma, dosed 112 weeks, study length 112 weeks); 839 mg/kg/day (rat, strain Charles River CD (Sprague-Dawley), males, in feed, site: testis, lesion: interstitial-cell tumor, dosed 104 weeks, study length 104 weeks); 2940 mg/kg/day (rat, strain Charles River CD (Sprague-Dawley), males, in feed, site: thyroid gland, lesion: several types, types named in the paper, dosed 104 weeks, study length 104 weeks); 947 mg/kg/day (rat, strain Fischer 344, females, in feed, site: all sites, lesion: malignant lymphoma, dosed 104 weeks, study length 104 weeks); 1070 mg/kg/day (rat, strain Fischer 344, males, in feed, site: all sites, lesion: malignant lymphoma, dosed 104 weeks, study length 104 weeks).

As to `CCN(CC)C(=S)[S-].CCN(CC)C(=S)[S-].[Zn+2]`, the carcinogen call is, setting by setting: under setting [1], “negative (inactive)”; under setting [2], “negative (inactive)”; under setting [3], “negative (inactive)”; under setting [6], “negative (inactive)”; (mouse, strain B6C3F1, females, oral dosing, site: any site (literature study), lesion: one or several types, types not named, dosed 76 weeks, study length 76 weeks) “negative (inactive)”; under setting [7], “negative (inactive)”. Also, the carcinogen call is “negative (inactive)” under setting [8] and “negative (inactive)” under setting [10]. Further, the TD50 under setting [4] was 86.7 mg/kg/day (inactive), the TD50 under setting [5] is 205 mg/kg/day (inactive), the TD50 under setting [9] is 28.5 mg/kg/day (inactive) and the TD50 under setting [11] is 46.2 mg/kg/day (inactive).

With `CC(=O)N[C@@H](CS)C(=O)O`, for the setting “rat, strain Fischer 344, males, in feed, site: liver, lesion: several types, types named in the paper, dosed 98 weeks, study length 98 weeks”, the carcinogen call is “negative (inactive)”.

Take `[Cl][Fe]([Cl])[Cl]`: the TD50 (rat, strain F344/DuCrj, females, in drinking water, site: any site (literature study), lesion: one or several types, types not named, dosed 104 weeks, study length 112 weeks) is 505 mg/kg/day (inactive) and the TD50 (rat, strain F344/DuCrj, males, in drinking water, site: liver, lesion: neoplastic nodule, dosed 104 weeks, study length 112 weeks) was 8810 mg/kg/day (inactive). For the same molecule, the carcinogen call reads like this: (rat, strain F344/DuCrj, females, in drinking water, site: liver, lesion: neoplastic nodule, dosed 104 weeks, study length 112 weeks) “negative (inactive)”; (rat, strain F344/DuCrj, males, in drinking water, site: any site (literature study), lesion: one or several types, types not named, dosed 104 weeks, study length 112 weeks) “negative (inactive)”.

On to `O=C(NCC1CCCCN1)c1cc(OCC(F)(F)F)ccc1OCC(F)(F)F` (stereo not drawn), for which the carcinogen call by setting is: (mouse, strain Charles River CD1, females, in feed, site: liver, lesion: adenoma, dosed 78 weeks, study length 78 weeks) “negative (inactive)”; (mouse, strain Charles River CD1, males, in feed, site: liver, lesion: adenoma, dosed 78 weeks, study length 78 weeks) “negative (inactive)”; (mouse, strain Charles River CD1, males, in feed, site: liver, lesion: hepatocellular carcinoma, dosed 78 weeks, study length 78 weeks) “negative (inactive)”; (mouse, strain Charles River CD1, males, in feed, site: lung, lesion: adenoma, dosed 78 weeks, study length 78 weeks) “negative (inactive)”; (rat, strain Charles River Crl:COBS(WI)BR, females, in feed, site: liver, lesion: adenoma, dosed 104 weeks, study length 104 weeks) “negative (inactive)”. Also, the TD50 by setting is: (mouse, strain Charles River CD1, females, in feed, site: lung, lesion: adenoma, dosed 78 weeks, study length 78 weeks) 938 mg/kg/day (inactive); (rat, strain Charles River Crl:COBS(WI)BR, males, in feed, site: liver, lesion: adenoma, dosed 104 weeks, study length 104 weeks) 3580 mg/kg/day (inactive); (rat, strain Charles River Crl:COBS(WI)BR, males, in feed, site: testis, lesion: interstitial-cell adenoma, dosed 104 weeks, study length 104 weeks) 79.1 mg/kg/day (inactive).

With `NC(=O)N(CC(=O)O)N=O`, the TD50 by setting is: (rat, strain Donryu, females, in drinking water, site: any site (literature study), lesion: several types, types named in the paper, dosed 68 weeks, study length 68 weeks) 1.38 mg/kg/day; (rat, strain Donryu, females, in drinking water, site: intestine, lesion: several types, types named in the paper, dosed 68 weeks, study length 68 weeks) 5.37 mg/kg/day; (rat, strain Donryu, females, in drinking water, site: mammary gland, lesion: fibroadenoma, dosed 68 weeks, study length 68 weeks) 2.92 mg/kg/day; (rat, strain Donryu, females, in drinking water, site: mammary gland, lesion: several types, types named in the paper, dosed 68 weeks, study length 68 weeks) 2.3 mg/kg/day; (rat, strain Donryu, females, in drinking water, site: small intestine, lesion: adenocarcinoma, dosed 68 weeks, study length 68 weeks) 11.6 mg/kg/day; (rat, strain Donryu, females, in drinking water, site: small intestine, lesion: adenoma, dosed 68 weeks, study length 68 weeks) 8.09 mg/kg/day. Further, the TD50 by setting is: (rat, strain MRC-Wistar, males, in drinking water, site: any site (literature study), lesion: several types, types named in the paper, dosed 74 weeks, study length 130 weeks) 13.1 mg/kg/day; (rat, strain MRC-Wistar, males, in drinking water, site: epidermis, lesion: several types, types named in the paper, dosed 74 weeks, study length 130 weeks) 34.8 mg/kg/day.

Take `Cc1c(-c2cnccn2)ssc1=S`: the carcinogen call was “negative (inactive)” (rat, strain Charles River CD (Sprague-Dawley), females, by gavage, site: liver, lesion: one or several types, types not named, dosed 52 weeks, study length 52 weeks) and “negative (inactive)” (rat, strain Charles River CD (Sprague-Dawley), males, by gavage, site: liver, lesion: one or several types, types not named, dosed 52 weeks, study length 52 weeks).

With `CC1=C2C(=CO[C@H](C)[C@H]2C)C(=O)C(C(=O)O)=C1O`, the carcinogen call runs as follows: (rat, strain Fischer 344, males, in feed, site: kidney, lesion: clear-cell adenoma, dosed 60 weeks, study length 60 weeks) “positive”; (rat, strain Fischer 344, males, in feed, site: kidney, lesion: clear-cell adenoma, dosed 80 weeks, study length 80 weeks) “positive”.

Usually TD50 stands for the dose at which the toxic effect under study appears in half of the subjects.

(Values after PubChem BioAssay AID1745844 (Carcinogenic Potency Database (CPDB), 2022).)
